What all share (format): cell-based
In assay [1] the target is T1, TNK2 (ACK1, Activated Cdc42-associated kinase) (Homo sapiens, UniProt Q07912).
T1 construct: NanoLuc fusion (Promega NV4451)
As to the kind of experiment: NanoBRET TE intracellular kinase assay with K-10 tracer in HEK293T cells. (In general: BRET reads energy transfer from a luciferase to a nearby fluorophore.)

For assay [2], the target named is T2, FER (Fps/Fes-related kinase) (Homo sapiens, UniProt P16591).
T2 construct: NanoLuc fusion (Promega NV1331)
T2 sequence (P16591 whole entry, the tested form may be a part): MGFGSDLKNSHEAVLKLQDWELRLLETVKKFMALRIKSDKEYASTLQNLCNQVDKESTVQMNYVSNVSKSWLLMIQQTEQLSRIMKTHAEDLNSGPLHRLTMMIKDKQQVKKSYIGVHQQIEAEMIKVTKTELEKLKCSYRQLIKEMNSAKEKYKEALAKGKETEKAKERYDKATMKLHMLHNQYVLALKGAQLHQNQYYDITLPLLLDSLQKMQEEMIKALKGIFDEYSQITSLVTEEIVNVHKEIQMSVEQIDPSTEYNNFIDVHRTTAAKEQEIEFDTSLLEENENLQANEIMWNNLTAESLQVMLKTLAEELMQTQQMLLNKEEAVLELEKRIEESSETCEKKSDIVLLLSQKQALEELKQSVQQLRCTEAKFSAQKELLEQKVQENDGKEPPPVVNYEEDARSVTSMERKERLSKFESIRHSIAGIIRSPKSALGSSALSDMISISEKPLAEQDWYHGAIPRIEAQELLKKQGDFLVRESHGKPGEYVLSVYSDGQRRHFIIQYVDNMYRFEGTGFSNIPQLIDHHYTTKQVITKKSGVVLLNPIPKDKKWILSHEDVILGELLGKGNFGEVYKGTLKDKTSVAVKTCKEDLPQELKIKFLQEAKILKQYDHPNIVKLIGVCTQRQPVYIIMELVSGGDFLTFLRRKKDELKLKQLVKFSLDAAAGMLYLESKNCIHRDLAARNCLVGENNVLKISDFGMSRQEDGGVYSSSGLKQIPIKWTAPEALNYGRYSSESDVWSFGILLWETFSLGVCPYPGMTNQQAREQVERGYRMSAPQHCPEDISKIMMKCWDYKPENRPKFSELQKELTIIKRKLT
Described as above.

Assay [3] addresses T3, GAK (Cyclin G-associated kinase) (Homo sapiens, UniProt O14976).
T3 construct: NanoLuc fusion (Promega NV1421)
T3 sequence (O14976 1-1311): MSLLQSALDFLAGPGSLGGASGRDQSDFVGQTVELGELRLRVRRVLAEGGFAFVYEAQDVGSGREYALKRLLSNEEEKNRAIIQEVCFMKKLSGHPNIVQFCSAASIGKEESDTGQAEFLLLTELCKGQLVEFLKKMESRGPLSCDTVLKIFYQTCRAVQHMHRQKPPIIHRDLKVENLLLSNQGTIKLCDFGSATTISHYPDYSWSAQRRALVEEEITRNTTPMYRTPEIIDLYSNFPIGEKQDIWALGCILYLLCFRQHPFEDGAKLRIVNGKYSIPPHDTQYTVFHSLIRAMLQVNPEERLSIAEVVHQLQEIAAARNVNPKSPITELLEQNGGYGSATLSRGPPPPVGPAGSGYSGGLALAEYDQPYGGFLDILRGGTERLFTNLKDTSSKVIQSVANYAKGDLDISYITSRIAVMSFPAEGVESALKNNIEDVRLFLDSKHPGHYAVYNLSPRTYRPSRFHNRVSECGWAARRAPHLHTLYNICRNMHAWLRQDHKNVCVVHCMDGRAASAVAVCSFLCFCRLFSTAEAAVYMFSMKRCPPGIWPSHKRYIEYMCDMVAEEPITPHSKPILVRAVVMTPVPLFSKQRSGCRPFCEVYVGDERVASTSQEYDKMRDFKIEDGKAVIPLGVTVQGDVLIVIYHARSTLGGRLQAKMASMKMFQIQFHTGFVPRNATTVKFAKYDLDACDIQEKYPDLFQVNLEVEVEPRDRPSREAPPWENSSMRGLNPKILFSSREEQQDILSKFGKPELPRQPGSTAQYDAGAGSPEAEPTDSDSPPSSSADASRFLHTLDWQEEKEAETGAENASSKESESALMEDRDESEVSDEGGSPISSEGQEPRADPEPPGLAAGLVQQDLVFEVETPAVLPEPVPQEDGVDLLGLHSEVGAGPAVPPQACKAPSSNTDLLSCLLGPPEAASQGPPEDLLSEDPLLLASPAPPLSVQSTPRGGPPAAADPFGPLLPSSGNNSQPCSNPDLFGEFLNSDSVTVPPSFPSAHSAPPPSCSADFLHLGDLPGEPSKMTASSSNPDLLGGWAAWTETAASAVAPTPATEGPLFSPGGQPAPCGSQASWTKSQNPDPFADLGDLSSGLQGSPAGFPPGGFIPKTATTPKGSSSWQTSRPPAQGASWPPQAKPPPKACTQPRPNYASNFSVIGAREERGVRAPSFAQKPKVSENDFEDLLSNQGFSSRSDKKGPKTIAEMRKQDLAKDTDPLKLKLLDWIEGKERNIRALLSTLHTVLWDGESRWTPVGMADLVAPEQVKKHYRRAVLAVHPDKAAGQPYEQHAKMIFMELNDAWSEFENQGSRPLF
Described as above.

The next assay addresses FAK2 (PTK2B) (Homo sapiens, UniProt Q14289). Put plainly: MIB/MS kinome profiling, HS01/HS11 Schwann cells, […] (text: lysate treatment; legend: cells treated […] h).
Assay [4] deals with T4, FAK1 (PTK2, focal adhesion kinase 1) (Homo sapiens, UniProt Q05397).
T4 construct: NanoLuc fusion (Promega NV1921)
T4 sequence (Q05397 2-1052): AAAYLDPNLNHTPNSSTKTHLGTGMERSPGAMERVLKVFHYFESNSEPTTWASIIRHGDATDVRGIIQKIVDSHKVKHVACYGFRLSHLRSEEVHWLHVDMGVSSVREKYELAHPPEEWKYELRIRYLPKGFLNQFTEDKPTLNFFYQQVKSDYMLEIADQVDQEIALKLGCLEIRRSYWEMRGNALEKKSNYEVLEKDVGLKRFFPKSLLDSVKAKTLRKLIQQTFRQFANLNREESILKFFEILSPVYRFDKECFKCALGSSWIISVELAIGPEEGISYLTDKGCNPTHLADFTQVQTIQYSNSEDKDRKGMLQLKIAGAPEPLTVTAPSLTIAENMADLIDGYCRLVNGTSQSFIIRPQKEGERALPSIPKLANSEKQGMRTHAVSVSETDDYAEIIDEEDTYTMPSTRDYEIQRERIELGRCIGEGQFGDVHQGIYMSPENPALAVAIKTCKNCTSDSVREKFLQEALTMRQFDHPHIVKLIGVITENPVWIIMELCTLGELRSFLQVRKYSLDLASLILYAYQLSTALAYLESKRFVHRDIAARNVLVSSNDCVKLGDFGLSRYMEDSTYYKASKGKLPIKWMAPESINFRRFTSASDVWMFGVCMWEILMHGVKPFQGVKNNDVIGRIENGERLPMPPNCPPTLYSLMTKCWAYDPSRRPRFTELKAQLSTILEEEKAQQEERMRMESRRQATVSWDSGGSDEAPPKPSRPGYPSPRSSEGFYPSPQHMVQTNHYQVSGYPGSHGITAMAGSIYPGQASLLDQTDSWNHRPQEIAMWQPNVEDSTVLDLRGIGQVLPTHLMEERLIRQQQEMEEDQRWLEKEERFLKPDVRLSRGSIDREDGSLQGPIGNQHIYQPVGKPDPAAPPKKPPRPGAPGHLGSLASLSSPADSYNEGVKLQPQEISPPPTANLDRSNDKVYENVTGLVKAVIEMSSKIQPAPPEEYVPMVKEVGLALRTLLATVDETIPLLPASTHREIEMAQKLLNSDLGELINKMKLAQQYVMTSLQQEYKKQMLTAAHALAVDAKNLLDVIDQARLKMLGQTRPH
As to the kind of experiment: NanoBRET TE intracellular kinase assay with K-10 tracer in HEK293T cells.

FAK2 (PTK2B), sequence (Q14289 whole entry): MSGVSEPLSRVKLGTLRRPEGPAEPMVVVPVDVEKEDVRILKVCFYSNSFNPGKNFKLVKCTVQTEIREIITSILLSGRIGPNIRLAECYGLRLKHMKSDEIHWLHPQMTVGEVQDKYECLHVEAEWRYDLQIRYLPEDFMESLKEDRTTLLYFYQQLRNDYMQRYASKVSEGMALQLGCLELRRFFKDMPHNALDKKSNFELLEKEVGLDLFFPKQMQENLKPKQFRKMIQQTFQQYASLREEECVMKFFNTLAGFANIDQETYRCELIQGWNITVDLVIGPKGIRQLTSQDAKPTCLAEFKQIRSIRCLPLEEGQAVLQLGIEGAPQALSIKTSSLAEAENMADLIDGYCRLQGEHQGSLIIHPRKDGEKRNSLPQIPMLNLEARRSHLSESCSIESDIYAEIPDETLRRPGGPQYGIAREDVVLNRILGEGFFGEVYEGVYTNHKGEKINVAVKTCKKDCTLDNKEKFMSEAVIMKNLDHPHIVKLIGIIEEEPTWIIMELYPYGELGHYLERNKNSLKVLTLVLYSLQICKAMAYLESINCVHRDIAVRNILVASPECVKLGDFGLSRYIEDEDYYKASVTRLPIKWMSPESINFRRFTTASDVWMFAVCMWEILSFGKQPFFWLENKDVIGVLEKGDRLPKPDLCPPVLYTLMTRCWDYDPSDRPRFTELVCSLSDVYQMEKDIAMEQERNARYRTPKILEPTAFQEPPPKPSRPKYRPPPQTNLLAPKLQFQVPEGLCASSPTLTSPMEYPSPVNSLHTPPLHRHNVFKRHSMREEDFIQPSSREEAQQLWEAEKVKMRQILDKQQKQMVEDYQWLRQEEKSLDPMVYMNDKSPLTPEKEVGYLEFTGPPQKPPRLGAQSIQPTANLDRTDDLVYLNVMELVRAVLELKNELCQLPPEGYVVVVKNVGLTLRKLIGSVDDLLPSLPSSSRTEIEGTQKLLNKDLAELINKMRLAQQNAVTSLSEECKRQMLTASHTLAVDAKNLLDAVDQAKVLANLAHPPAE
T1 sequence (Q07912 whole entry, the tested form may be a part): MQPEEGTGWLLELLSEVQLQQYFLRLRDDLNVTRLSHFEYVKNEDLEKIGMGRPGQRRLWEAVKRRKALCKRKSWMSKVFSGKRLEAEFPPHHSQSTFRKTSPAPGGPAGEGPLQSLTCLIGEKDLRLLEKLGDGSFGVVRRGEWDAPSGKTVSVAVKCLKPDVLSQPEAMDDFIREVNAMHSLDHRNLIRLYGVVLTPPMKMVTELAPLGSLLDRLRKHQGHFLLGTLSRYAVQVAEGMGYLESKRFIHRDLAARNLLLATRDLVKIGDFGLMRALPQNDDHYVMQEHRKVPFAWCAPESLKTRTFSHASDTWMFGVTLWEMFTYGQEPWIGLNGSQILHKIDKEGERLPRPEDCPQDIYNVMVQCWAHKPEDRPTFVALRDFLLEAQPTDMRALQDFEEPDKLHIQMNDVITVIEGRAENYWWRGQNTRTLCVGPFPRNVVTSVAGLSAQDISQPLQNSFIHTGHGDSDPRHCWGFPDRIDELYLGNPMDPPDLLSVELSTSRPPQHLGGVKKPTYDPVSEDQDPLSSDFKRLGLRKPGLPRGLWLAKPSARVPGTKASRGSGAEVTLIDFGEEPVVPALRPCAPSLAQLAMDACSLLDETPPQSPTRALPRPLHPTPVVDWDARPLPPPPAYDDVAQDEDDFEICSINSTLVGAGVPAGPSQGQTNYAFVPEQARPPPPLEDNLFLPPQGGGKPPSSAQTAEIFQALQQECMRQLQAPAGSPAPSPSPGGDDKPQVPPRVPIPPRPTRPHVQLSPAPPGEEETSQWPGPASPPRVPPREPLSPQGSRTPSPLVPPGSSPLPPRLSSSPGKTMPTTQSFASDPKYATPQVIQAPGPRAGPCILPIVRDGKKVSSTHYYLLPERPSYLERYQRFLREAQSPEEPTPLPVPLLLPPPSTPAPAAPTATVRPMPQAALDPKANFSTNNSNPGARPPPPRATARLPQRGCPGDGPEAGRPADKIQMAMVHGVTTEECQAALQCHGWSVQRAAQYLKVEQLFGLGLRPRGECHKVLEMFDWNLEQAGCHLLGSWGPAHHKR

As usually defined, the IC50 is the concentration needed to halve the response being measured. The low end stands for greater potency in that assay, the high end for weaker potency in that assay. Turning to `COc1cc(N2CCC(N3CCN(C)CC3)CC2)ccc1Nc1ncc(Cl)c(Nc2ccccc2P(C)(C)=O)n1` [brigatinib], the IC50 in assay [1] was 0.35 µM; in assay [2], 0.304 µM; in assay [3] it was 0.155 µM; in assay [4], 0.573 µM. Moreover, the “MIB/MS kinome profiling, HS01/HS11 Schwann cells, 1 uM (text: lysate treatment;)” value at FAK2 (PTK2B) is “kinases with the largest reduction in binding were FER, TNK2, FAK1 (PTK2) and FAK2 (PTK2B)”.
